These results are taken from EP1633390B1, “STABILIZED PHARMACEUTICAL GLP-1 PEPTIDE COMPOSITIONS” (NOVO NORDISK A/S, priority 2003, dated 2012).

The series in a line: Thioflavin T-test (ThT-test) of physical stability / fibril formation of the formulations. Format: physicochemical. Here is the method:
Physical stability of the formulations is evaluated by means of the Thioflavin T-test. The physical stability of the different formulations is characterized by their tendency to form fibrils. A method to determine the presence of fibrils is the Thioflavin T-test. The histological thiazole dye Thioflavin T (ThT) is used as an indicator of amyloid fibril formation. The method is based on the fluorescent characteristics of ThT. […] The physical stability of the formulations is evaluated by the ThT-test after storage of the formulation is top filled glass cartridges for various time periods.

On to `CCCCCCCCCCCCCCCC(=O)N[C@@H](CCC(=O)NCCCC[C@H](NC(=O)[C@H](C)NC(=O)[C@H](C)NC(=O)[C@H](CCC(N)=O)NC(=O)CNC(=O)[C@H](CCC(=O)O)NC(=O)[C@H](CC(C)C)NC(=O)[C@H](Cc1ccc(O)cc1)NC(=O)[C@H](CO)NC(=O)[C@H](CO)NC(=O)[C@@H](NC(=O)[C@H](CC(=O)O)NC(=O)[C@H](CO)NC(=O)[C@@H](NC(=O)[C@H](Cc1ccccc1)NC(=O)[C@@H](NC(=O)CNC(=O)[C@H](CCC(=O)O)NC(=O)[C@H](C)NC(=O)[C@@H](N)Cc1cnc[nH]1)[C@@H](C)O)[C@@H](C)O)C(C)C)C(=O)N[C@@H](CCC(=O)O)C(=O)N[C@@H](Cc1ccccc1)C(=O)N[C@H](C(=O)N[C@@H](C)C(=O)N[C@@H](Cc1c[nH]c2ccccc12)C(=O)N[C@@H](CC(C)C)C(=O)N[C@H](C(=O)N[C@@H](CCCNC(=N)N)C(=O)NCC(=O)N[C@@H](CCCNC(=N)N)C(=O)NCC(=O)O)C(C)C)[C@@H](C)CC)C(=O)O` [Compound 1, Arg^34, Lys^26 (N^∈-(γ-Glu(N^α-hexadecanoyl)))-GLP-1 (7-37)], for which the “physical stability (change in ThT)” value is given as “an increase in ThT is seen” (Compound 1 adjusted to pH 8.0 before freeze drying, after 1 week and 1 months storage at 37°C); “no increase in ThT is seen” (Compound 1 adjusted to pH 9.5 and 11.5 before freeze drying, after 1 week and 1 months storage at 37°C); “no increase in ThT is seen” (formulation manufactured by raising pH above neutral pH (> 8) in the solution containing the drug substance, after 1 month at 37°C).
